The values below come from patent publication US11998010B2, “Pesticidal mixtures” (BASF SE, priority 2018, dated 2024).

Molecules are shown by their SMILES.

This experiment relates to Alternaria solani. The experiment can be described thus: Microtest: activity against early blight caused by Alternaria solani (micro titer plate, absorption at 405 nm). Type of experiment: cell-based. The following applies: single compound, 7 days after inoculation, 0 = growth as untreated control, 100 = no growth. As for the experimental part: The stock solutions were mixed according to the ratio, pipetted onto a micro titer plate (MTP) and diluted with water to the stated concentrations. A spore suspension of Alternaria solani in an aqueous biomalt or yeast-bactopeptone-glycerine or DOB solution was then added. The plates were placed in a water vapor-saturated chamber at a temperature of 18° C. Using an ab-sorption photometer, the MTPs were measured at 405 nm 7 days after the inoculation. The measured parameters were compared to the growth of the active compound-free control variant (100%) and the fungus-free and active compound-free blank value to determine the relative growth in % of the pathogens in the respective active compounds. These percentages were converted into efficacies. […] The expected efficacies of active compound mixtures were determined using Colby's formula [R. S. Colby, “Calculating synergistic and antagonistic responses of herbicide combinations”, Weeds 15, 20-22 (1967)] and compared with the observed efficacies.

For `Cc1cccc(-n2nnn(C)c2=O)c1COc1ccn(-c2ccc(Cl)cc2)n1` [Compound II, 1-[2-[[1-(4-chlorophenyl)pyrazol-3-yl]oxymethyl]-3-methyl-phenyl]-4-methyl-tetrazol-5-one, reference compound], the Observed efficacy (0.016 ppm) came to 11.
With `N#Cc1ccc(Oc2ccc(C(F)(F)C(O)(Cn3ncnc3S)c3ccc(F)cc3F)nc2)cc1` (stereo not shown) [Compound I, 4-[[6-[2-(2,4-difluorophenyl)-1,1-difluoro-2-hydroxy-3-(5-sulfanyl-1,2,4-triazol-1-yl)propyl]-3-pyridyl]oxy]benzonitrile], the Observed efficacy is, setting by setting: (0.25 ppm) 7; (1 ppm) 8; (4 ppm) 30.
